The values that follow come from patent US11807668B2, “Use of citronellol in preparing preparation for promoting expression of virulence gene Toxa of Pseudomonas aeruginosa” (priority 2021, dated 2023).

For assay [1], the system named is key genes of a quorum-sensing system of Pseudomonas aeruginosa and virulence genes regulated thereby (PAO1 cells). Kind of assay: Effects of citronellol on the expression of key quorum-sensing genes and virulence genes regulated thereby (real-time fluorescent quantitative PCR). It is filed as cell-based. The following applies: 1.25 μL/mL citronellol for 5 h. The protocol:
(§1) Preparation of PAO1[(Pseudomonas aeruginosa) PAO1] bacterial suspension: a culture solution of Pseudomonas aeruginosa PAO1 in an exponential growth phase was sampled, centrifuged, washed once with a PBS buffer, resuspended in PBS, and diluted to 10^8 CFU/mL to obtain the PAO1 bacterial suspension.
The PAO1 bacterial suspension in a logarithmic growth phase was added to 50 mL of sterile LB liquid culture medium to reach a final concentration of 10^6 CFU/mL for the bacterial solution. Citronellol (β-citronellol) was added to reach the final concentrations of 0 (three biological replicates in the control group were named A1, A2, and A3, respectively) and 1.25 μL/mL (three biological replicates in the test groups were named B1, B2, B3). Each group was cultured at 37° C. and 180 rpm for 5 h, and centrifuged to collect bacteria, which were then quick-frozen at −80° C. for later use.
Total RNAs were extracted from the bacteria by a Trizol (Thermo Fisher Scientific) kit.
After extraction, the purity of the RNAs were detected with an ultra-micro spectrophotometer (Implen, Munich, Germany). An A260/A280 value of each RNA sample should be between 1.8 and 2.0. Reverse transcription and real-time fluorescent quantitative PCR amplification were carried out by using a PrimeScript RT Master Mix kit (Takara, Dalian, China) and an ETC 811 PCR instrument (Eastwin Life Sciences, Inc.). A q-PCR reaction system included Takara SYBR Premix Ex TaqII (Tli RNaseH Plus) (Code No. RR820A), and PCR procedures included: pre-denaturation at 95° C. for 30 s; and denaturation at 95° C. for 5 s and annealing at 60° C. for 34 s, 40 cycles. Based on 10 gene sequences published on the website of GenBank, primers for q-PCR were designed by using software Primer Premier 5.0, and at the same time, a 16S rRNA gene was used as an internal reference gene.

The test system of assay [2] is Pseudomonas aeruginosa PAO1. Kind of assay: Effects of citronellol on the growth of Pseudomonas aeruginosa PAO1 (growth curve, OD600, Bioscreen C). Format: cell-based. The protocol: as §1
An LB culture medium and citronellol […] were added to test tubes respectively, and the PAO1 bacterial suspension in the exponential growth phase was inoculated to reach a total volume of 10 mL respectively. The bacterial concentration of PAO1 was each 10^6′ CFU/mL, and the concentration of citronellol was 0 (control), 0.313 μL/mL, 0.625 μL/mL, 1.25 μL/mL, and 2.5 μL/mL, respectively. Samples from several test groups were added to a honeycomb culture plate dedicated to an automatic growth curve analyzer (Bioscreen C), and 350 μL of culture solution was added to each well, with three parallel for each test group. The honeycomb culture plate was placed in the automatic growth curve analyzer, and cultured over shaking at 37° C. for 3 days, and OD600 was measured every hour. Taking OD600 as the ordinate and a culture time as the abscissa, the growth curve of PAO1 under the action of citronellol was drawn to study the effect of the citronellol on the growth of PAO1. The results were shown as in FIG. 1.

As to `CC(C)=CCCC(C)CCO` (stereo not drawn) [citronellol, β-citronellol], in assay [1], the “expression of signaling molecule receptor protein gene lasR” value is listed as “significantly up-regulated”, the “expression of signaling molecule receptor protein gene pqsR” value was “significantly down-regulated”, the “expression of signaling molecule synthase gene lasI” value is listed as “significantly up-regulated” and the “expression of signaling molecule synthase gene pgsA” value is listed as “significantly down-regulated”. Besides, in assay [1], the “transcription level of lasA” value is given as “up-regulated, but with a less significant change”; the “transcription level of signaling molecule receptor protein gene rhIR” value is reported as “significantly up-regulated”; the “transcription level of signaling molecule synthase gene rhII” value is on record as “changes a little”; the “transcription level of toxA” value is “significantly up-regulated”. For the same compound, in assay [1], the “transcription of virulence gene chiC” value was “inhibited”, the “transcription of virulence gene lasB” value is “inhibited”, the “transcription of virulence gene phzM” value is “inhibited” and the “transcription of virulence gene psIB” value was “inhibited”. In addition, in assay [2] (0.313 μL/mL), the “time point when the absorbance value of the culture solution differs greatly (time to maximum absorbance)” value is 26 h. Moreover, the “time point when the absorbance value of the culture solution differs greatly (time to maximum absorbance)” value in assay [2] (0.625 μL/mL) is on record as 37 h. For the same compound, in assay [2] (1.25 μL/mL), the “time point when the absorbance value of the culture solution differs greatly (time to maximum absorbance)” value was 39 h. For the same compound, the “time point when the absorbance value of the culture solution differs greatly (time to maximum absorbance)” value in assay [2] (2.5 μL/mL) was 48 h. Further, in assay [2] (citronellol at 0.313, 0.625, 1.25 and 2.5 μL/mL, LB, 37° C., 3 days, OD600), the “inhibitory effect on the growth of PAO1” value is listed as “a certain yet weak inhibitory effect”. In addition, the “difference in lag phase and logarithmic growth phase on the PAO1 growth curves” value in assay [2] (citronellol treatment groups at different concentrations (0.313-2.5 μL/mL)) is “no significant difference”.
